According to patent publication US20190110476A1, “NOVEL ISOTHIAZOLAMIDES, PROCESSES FOR THEIR PREPARATION AND THEIR USE AS FUNGICIDES” (priority 2014, published 2019):
Marks after values point to notes of the source that are not given here.

Test: Measurement of LogP values by HPLC on reversed phase columns (EEC directive 79/831 Annex V.A8)
Assay type: physicochemical
Settings: not given
How it was run: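 Following EEC directive 79/831 Annex V.A8, lipophilicity was derived from retention on reversed-phase HPLC columns. Separate values are given per diastereoisomer, and UV lambda-max (200–400 nm) was read at the peak signals.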

| SMILES | LogP [a] | LogP | LogP [b] |
| --- | --- | --- | --- |
| CCCS(CC)=Nc1nsc(C(=O)NCc2c(F)cc(F)cc2F)c1F (stereo not drawn) [II-105] | 1.92^[a] | – | – |
| CC(C)(C)OC(=O)Nc1nsc(C(=O)NCC2CCCCC2Cl)c1F (stereo not drawn) [I-1572] | – | 3.34[a] | – |
| CC(=O)Nc1nsc(C(=O)NCC2CCCCC2)c1Cl [I-167] | – | 2.14[a] | – |
| Nc1nsc(C(=O)NCc2cccc(F)c2)c1Cl [I-026] | – | 1.84[a] | – |
| COc1ccc(CNc2nsc(C(=O)NCc3cnn(CC(F)(F)F)c3)c2Cl)cc1 [I-1258] | – | 2.84[a] | – |
| Nc1nsc(C(=O)N(c2ccc(F)cc2)C2CC2)c1Cl [I-917] | – | 2.21[a] | – |
| Nc1nsc(C(=O)N2CCCc3ccc(C(F)(F)F)cc32)c1Cl [II-018] | 2.78 | – | 2.71 |
| COc1ccc(CNc2nsc(C(=O)N(Cc3ccc(Cl)cc3Cl)C3CC3)c2Cl)cc1 [I-930] | – | 5.08[a] | – |
| COC(=O)c1snc(N)c1Cl [E-VII-001] | 1.42^[a] | – | – |
| COc1ccc(CNc2nsc(C(=O)NC3CCC(C(C)(C)C)CC3)c2Cl)cc1 (stereo not drawn) [I-1252] | – | 5.51[a] | – |
| CC(=O)Nc1nsc(C(=O)NCc2ccc(C#N)cc2)c1Cl [I-847] | – | 1.24[a] | – |
| Cc1ccc(CN(C(=O)c2snc(N)c2Cl)C2CC2)c(C)c1 [I-152] | – | 3.09[a] | – |
| Nc1cc(C(=O)NCC2CCCC2O)sn1 (stereo not drawn) [I-774] | – | 0.63[a] | – |
| CNC(=O)c1snc(N)c1Cl [I-884] | – | 0.32[a] | – |
| Nc1nsc(C(=O)N(Cc2ccc(Cl)cc2Cl)C2CCC2)c1Cl [I-211] | – | 3.85[a] | – |
| COc1ccc(CNc2nsc(C(=O)NCc3ccc(OC)cn3)c2Cl)cc1 [I-1318] | – | 2.45[a] | – |
| O=C(NCc1ccc(Cl)cc1Cl)c1cc(N(Cc2ccccc2)Cc2ccccc2)ns1 [I-323] | – | 5.17[a] | – |
| CCOC(=O)c1snc(N(C(C)=O)C(C)=O)c1Cl [E-VII-022] | 2.47^[a] | – | – |
| Nc1nsc(C(=O)NCC2CCCC(Cl)C2)c1Cl (stereo not drawn) [I-1580] | – | 2.23[a] | – |
| Nc1nsc(C(=O)NOc2ccccc2)c1Cl [I-1033] | – | 1.53[a] | – |
| O=C(NCc1ccc(F)cc1F)c1snc(NC(=O)C(F)(F)F)c1Cl [I-280] | – | 2.64[a] | – |
| COc1ccc(CNc2nsc(C(=O)NCc3cccc(OC(F)(F)F)c3)c2Cl)cc1 [I-1233] | – | 4.13[a] | – |
| C[C@H](NC(=O)c1snc(NCc2ccccc2)c1Cl)C1CCCCC1 [I-040] | – | 4.74[a] | – |
| Nc1nsc(C(=O)NCC2CCCCCC2)c1Cl [I-054] | – | 2.86[a] | – |
| Cc1ccc(CNC(=O)c2snc(N)c2C)c(F)c1 [I-145] | – | 1.81[a] | – |
| Cc1ccc(F)c(CN(C(=O)c2cc(N)ns2)C2CC2)c1 [I-995] | – | 2.44[a] | – |
| Nc1nsc(C(=O)NCc2ccc(Cl)cc2)c1Cl [I-020] | – | 2.16[a] | – |
| Nc1nsc(C(=O)NCc2ccccc2C(F)F)c1Cl [I-124] | – | 2.01[a] | – |
| CCC1(C)CC(NC(=O)c2snc(N)c2Cl)CC(C)(C)C1 (stereo not drawn) [I-1535] | – | 4.01[a] | – |
| COc1ccc(CNc2nsc(C(=O)Nc3ccc(Cl)cc3Cl)c2Cl)cc1 [I-867] | – | 5.22[a] | – |

The remaining lines, values ahead:

| LogP [a] | LogP | LogP [b] | SMILES |
| --- | --- | --- | --- |
| – | 6.09[a] | – | COc1ccc(CNc2nsc(C(=O)N(CC3C(C)CCCC3(C)C)C3CC3)c2Cl)cc1 (stereo not drawn) [I-859] |
| – | 2.40[a] | – | Nc1nsc(C(=O)NCc2ccc(Cl)cc2F)c1Cl [I-181] |
| – | 6.25[a] | – | O=C(NCC1CCCCC1)c1snc(N(Cc2ccccc2)Cc2ccccc2)c1Br [I-541] |
| – | 3.17[a] | – | C#CCOC(=O)Nc1nsc(C(=O)N[C@@H](C)C2CCCCC2)c1Cl [I-137] |
| – | 3.85[a] | – | COc1ccc(CNc2nsc(C(=O)Nc3cccc(F)c3)c2Cl)cc1 [I-861] |
| – | 3.46[a] | – | COc1ccc(CNc2nsc(C(=O)NC(C)c3nc(C(C)C)no3)c2Cl)cc1 (stereo not drawn) [I-1332] |
| – | 2.34[a] | – | CCc1ccc(CNC(=O)c2snc(NCc3ccc(OC)cc3)c2Cl)nc1 [I-1193] |
| – | 1.91[a] | – | Nc1nsc(C(=O)NCc2c(F)ccc(F)c2F)c1Cl [I-129] |
| – | 5.81[a] | – | CCC(c1cc(Cl)cc(Cl)c1)N(C(=O)c1snc(NCc2ccc(OC)cc2)c1Cl)C1CC1 (stereo not drawn) [I-936] |
| 2.47^[a] | – | – | CS(C)(=O)=Nc1nsc(C(=O)NCC2CCCCC2)c1Cl [II-049] |
| – | 5.87[a] | – | COc1ccc(CNc2nsc(C(=O)N(Cc3ccc(Cl)cc3Cl)C3CC3(C)C)c2Cl)cc1 (stereo not drawn) [I-945] |
| – | 1.51[a] | – | Nc1nsc(C(=O)NCC2(O)CCCCC2)c1Cl [I-138] |
| – | 2.50[a] | – | Nc1nsc(C(=O)NCC2CCCCC2Cl)c1I (stereo not drawn) [I-1293] |
| – | 5.45[a] | – | COc1ccc(CNc2nsc(C(=O)N(Cc3ccc(Cl)cc3Cl)CC3CC3)c2Cl)cc1 [I-935] |
| 3.17^[a] | – | – | O=C(NCc1cc(F)ccc1F)c1snc(Cl)c1Cl [E-II-011] |
| – | 2.60[a] | – | Cc1cc(Cl)ccc1CNC(=O)c1snc(N)c1Cl [I-389] |
| 2.60^[a] | – | – | O=C(NCC1CCCCC1)c1snc(N=S2CCCCC2)c1Cl [II-088] |

Same assay, conditions: HPLC LC-UV, acidic range, 0.1% formic acid in water and acetonitrile as eluent

| SMILES | chromatographic logP |
| --- | --- |
| Nc1nsc(C(=O)O)c1Br [E-VIII-015, 3-amino-4-bromo-1,2-thiazole-5-carboxylic acid] | -0.07 |
| c1ccc(CN(Cc2ccccc2)c2ccsn2)cc1 [Z-A-001, N,N-dibenzyl-1,2-thiazol-3-amine] | 4.13 |

Test: not given
Settings: not given

| SMILES | melting point [°C] |
| --- | --- |
| Nc1nsc(C(=O)O)c1Br [E-VIII-015, 3-amino-4-bromo-1,2-thiazole-5-carboxylic acid] | 164.5 |
